Drawing on ChEMBL document CHEMBL2331103, “Synthesis of a novel series of 2-alkylthio substituted naphthoquinones as potent acyl-CoA: cholesterol acyltransferase (ACAT) inhibitors” (Eur J Med Chem, 2013), this text covers IC50 for 25 molecules.

The assay has as its target T1, Sterol O-acyltransferase 1 (Homo sapiens, UniProt P35610).
T1 sequence (P35610 whole entry): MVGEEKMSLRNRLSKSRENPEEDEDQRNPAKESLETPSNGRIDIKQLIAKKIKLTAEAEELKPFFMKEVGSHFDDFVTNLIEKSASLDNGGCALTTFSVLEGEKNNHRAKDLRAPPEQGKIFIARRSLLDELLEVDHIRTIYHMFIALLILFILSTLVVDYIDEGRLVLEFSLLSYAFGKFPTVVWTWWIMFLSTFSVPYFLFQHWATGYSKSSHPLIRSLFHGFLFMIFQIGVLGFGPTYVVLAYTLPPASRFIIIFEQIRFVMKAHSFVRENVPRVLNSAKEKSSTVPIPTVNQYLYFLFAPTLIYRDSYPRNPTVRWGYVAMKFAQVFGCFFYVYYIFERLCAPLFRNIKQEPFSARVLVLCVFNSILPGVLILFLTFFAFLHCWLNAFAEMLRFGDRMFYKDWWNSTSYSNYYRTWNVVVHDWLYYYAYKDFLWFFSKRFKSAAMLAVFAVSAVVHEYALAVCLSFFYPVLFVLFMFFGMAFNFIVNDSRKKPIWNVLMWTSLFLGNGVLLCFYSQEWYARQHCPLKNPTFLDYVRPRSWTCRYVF
Description: Inhibition of human macrophage ACAT expressed in human HepG2 cells using [14C]oleoyl-CoA as substrate incubated for 20 mins prior to substrate addition measured after 25 mins by liquid scintillation counting analysis. The assay is classed as cell-based.

pIC50: −log10 of the molar value.

`CCCCCCCCC[S+]([O-])C1=CC(=O)c2ccccc2C1=O` (stereo not given): the pIC50 is 5.26. `CCCCCCCCSC1=CC(=O)c2ccccc2C1=O` gave a negative-log IC50 (pIC50) of 5.22. Turning to `CCS(=O)(=O)C1=CC(=O)c2c(OC)ccc(OC)c2C1=O`, the pIC50 was less than 4.00.

Regarding `CCCCCCCCCSC1=CC(=O)c2ccccc2C1=O`, the negative-log IC50 (pIC50) was 5.79. The value for `C[S+]([O-])C1=CC(=O)c2ccccc2C1=O` (stereo not given) was 5.25.

Molecule `CCCCCCCCCCCCSC1=CC(=O)c2ccccc2C1=O` gave a pIC50 of 5.78. This pIC50 lies 0.53 log units higher than the previous one.

`CCCCCSC1=CC(=O)c2ccccc2C1=O` had a pIC50 of 5.09. This pIC50 lies 0.69 log units lower than the previous one. Regarding `CCCCCCCCCC[S+]([O-])C1=CC(=O)c2c(OC)ccc(OC)c2C1=O` (stereo not given), the pIC50 was 5.08. `COc1ccc(OC)c2c1C(=O)C=C(S(C)(=O)=O)C2=O`: the pIC50 is less than 4.00. The value for `CCCCSC1=CC(=O)c2ccccc2C1=O` was 5.10. The molecule `CCCCCCCCCCCSC1=CC(=O)c2ccccc2C1=O` showed a pIC50 of 5.06. This pIC50 and that of the molecule before are within 0.2 log units of each other. Molecule `CCCCCCCCCCCCCCC[S+]([O-])C1=CC(=O)c2ccccc2C1=O` (stereo not given) had a negative-log IC50 (pIC50) of 4.25. `CSC1=CC(=O)c2ccccc2C1=O` showed a pIC50 of 5.55. To `CCCCCCCCCCCCCCCSC1=CC(=O)c2ccccc2C1=O` belongs 5.38; to `CCCCCCCCCCCCCCCCCC[S+]([O-])C1=CC(=O)c2c(OC)ccc(OC)c2C1=O` (stereo not given), less than 4.00. The value for `CCCSC1=CC(=O)c2ccccc2C1=O` was 5.29; that for `CCSC1=CC(=O)c2ccccc2C1=O` was 5.12; that for `CC(C)CNC(=O)/C=C/C=C/CCCC/C=C/c1ccc2c(c1)OCO2` [RETROFRACTAMIDE B] was 5.43.

`CCCCCCCCCCCCCCCS(=O)(=O)C1=CC(=O)c2c(OC)ccc(OC)c2C1=O`: the pIC50 is 5.24.

With `CCCS(=O)(=O)C1=CC(=O)c2c(OC)ccc(OC)c2C1=O`, the pIC50 was less than 4.00. The value for `CCCCCCCCCCC[S+]([O-])C1=CC(=O)c2c(OC)ccc(OC)c2C1=O` (stereo not given) was 5.96. The value for `CCCCCCCCCCCC[S+]([O-])C1=CC(=O)c2c(OC)ccc(OC)c2C1=O` (stereo not given) was 5.62; that for `CCCCCCCCCCCCCCCCCCSC1=CC(=O)c2ccccc2C1=O` was 5.84; that for `CCCCCCCCCCCS(=O)(=O)C1=CC(=O)c2c(OC)ccc(OC)c2C1=O` was 5.47. To `COc1ccc(OC)c2c1C(=O)C=C([S+](C)[O-])C2=O` (stereo not given) belongs less than 4.00.

Broadly, the pIC50 is the IC50 on a negative log10 scale, so that one unit is a factor of ten. Low values mean a high IC50, high ones a low IC50.
